Reference: patent publication US4935415A, “UCN-01 and process for production thereof” (priority 1986, dated 1990)
Converted amounts (≈) assume the structure as drawn.

Legend:
[1] = system: Bacillus subtilis No. 10707; experiment: Anti-bacterial activity, agar dilution method (MIC); type: cell-based; settings: pH 7
Protocol: (§1) The minimum inhibitory concentration (MIC) against various microorganisms is shown below.
(§2) The anti-bacterial activity was measured by the agar dilution method, using a medium (pH 7) prepared by dissolving 3 g of Bacto-Tryptone (manufacturedby Difco Co., Ltd.), 3 g of meat extract, 1 g of yeast extract, 1 g of glucose and 16 g of agar in 1 (of water.

Escherichia coli ATCC 26 = experiment: as above; type: cell-based; settings: ATCC26, pH 7
Protocol: as §1, §2

[2] = system: Klebsiella pneumoniae ATCC 10031; experiment: as above; type: cell-based; settings: ATCC10031, pH 7
Protocol: as §1, §2

[3] = system: Salmonella typhi ATCC 9992; experiment: as above; type: cell-based; settings: Salmonella enterica, pH 7
Protocol: as §1, §2

[4] = system: Shigella sonnei ATCC 9290; experiment: as above; type: cell-based; settings: ATCC9290, pH 7
Protocol: as §1, §2

[5] = system: Staphylococcus aureus ATCC 6538P; experiment: as above; type: cell-based; settings: ATCC6538P, pH 7
Protocol: as §1, §2

[6] = Acute toxicity (LD50), intraperitoneal administration to mice; settings: mouse, in vivo, ip
Protocol: The acute toxicity value (LD50) was 30 mg/kg by intraperitoneal administration to mice.

[7] = system: lymphocytic leukemia P388 tumor; experiment: Therapeutic effect on lymphocytic leukemia P388 tumor; type: in vivo, male CDF1 mice
Protocol: Therapeutic effect on lymphocytic leukemia P388 tumor:
Five male CDF1 mice each having a weight of about 22 g were used for each group as test animals, and 1×10^6 cells of lymphocytic leukemia P388 tumor were implanted intraperitoneally in the test animals. 24 hours after implantation, 0.2 ml of a phosphate buffer saline (hereafter referred to as PBS) containing UCN-01 was intraperitoneally administered.
The composition of PBS was 0.8% NaCl, 0.02% KCl, 1.15% Na2 HPO4, […] 0.02% KH2 PO4 (pH 7.0).
For comparison, 0.2 ml of PBS solution containing Staurosporine was intraperitoneally administered 24 hours after the implantation of the tumor cells. Increased life span (T/C) (T: mean survival days of the treated group, C: mean survival days of the control group) is shown in Table 5.

[8] = LD50 of Staurosporine (note to Table 5); settings: in vivo; species and route not printed in the note

`CNC1CC2OC(C)(C1OC)n1c3ccccc3c3c4c(c5c6ccccc6n2c5c31)C(=O)NC4O` (stereo not drawn) [UCN-01] gave an MIC [1] of over 100 µg/mL, an MIC (Escherichia coli ATCC 26) of 83 µg/mL (≈ 172 µM) and an MIC [2] of 83 µg/mL (≈ 172 µM). For the same compound, the MIC [3] was 83 µg/mL (≈ 172 µM), the MIC [4] was 100 µg/mL (≈ 207 µM) and the MIC [5] was 83 µg/mL (≈ 172 µM). The LD50 [6] was 30 mg/kg, the “Increased Life Span (T/C)” value ([7]; 7.5 mg/kg, intraperitoneal, 24 hours after implantation) was 1.12 and the “Increased Life Span (T/C)” value ([7]; 15 mg/kg, intraperitoneal, 24 hours after implantation) was 1.24. For the same compound, the “Increased Life Span (T/C): toxic” value ([7]; 30 mg/kg, intraperitoneal, 24 hours after implantation) was “toxic” and the “anti-tumor activity as compared with staurosporine” value ([7]; comparison with staurosporine, in words) was “superior anti-tumor activity”.
With `CN[C@@H]1C[C@H]2O[C@@](C)([C@@H]1OC)n1c3ccccc3c3c4c(c5c6ccccc6n2c5c31)C(=O)NC4` [Staurosporine, reference compound] the LD50 [8] was 6.6 mg/kg, the “Increased Life Span (T/C)” value ([7]; 1 mg/kg, intraperitoneal, 24 hours after implantation) was 1.10 and the “Increased Life Span (T/C)” value ([7]; 2 mg/kg, intraperitoneal, 24 hours after implantation) was 1.12. For the same compound, the “Increased Life Span (T/C)” value ([7]; 4 mg/kg, intraperitoneal, 24 hours after implantation) was 1.08.
